Assay results published in patent US11136283B2, “Recovering and purifying resveratrol produced by microbial fermentation” (EVOLVA SA, priority 2017, dated 2021).
Values joined by “and” are separate entries in the source; they are usually repeats but may differ in a detail not shown here. Equal entries are not always repeated.

Test: Stability of resveratrol in ultrafiltration filtrates concentrated by reverse osmosis and held at pH 11
Assay type: physicochemical
Details: held at pH 11 for 3 to 7 days at 5° C. to 8° C., at production vs 7 days after
Protocol: It is advantageous for process intermediate materials to have a high degree of stability, so that they can be processed over time without the need for immediate processing on equipment with high capacity. The various filtrates from the ultrafiltration tests were concentrated by reverse osmosis and held at pH 11 for 3 to 7 days at 5° C. to 8° C. to evaluate their stability. The product decomposition is a comparison between the composition at the time of production and that measured 7 days after production. The stability improved monotonically as the molecular weight cutoff of the ultrafilter was decreased from 100 kDa to 25 kDa to 5 kDa. 11%, 7%, and 5% of the resveratrol was decomposed in the respective tests.

With `Oc1ccc(/C=C/c2cc(O)cc(O)c2)cc1` [resveratrol, 3,5,4′-trihydroxy-trans-stilbene] the “Product Decomposition” value (filtrate from GR40PP 100 kDa ultrafilter, broth EFSC4687) was 11.5%, the “Product Decomposition” value (filtrate from GR40PP 100 kDa ultrafilter, broth EFSC 21811) was 11% and 10.7% and the “Product Decomposition” value (filtrate from GR60PP 25 kDa ultrafilter) was 7%. For the same molecule, the “Product Decomposition” value (filtrate from GR90PP 5 kDa ultrafilter) was 5%.
